Like-named read-outs stand apart in the source and are kept apart here.
Assays:
Assay type in all cases: in vivo
[1] = system: Puccinia triticina; Synonym: Puccinia recondite f. sp. tritici; assay: Wheat brown rust (PUCCRT) disease control on wheat seedlings; details: Puccinia triticina, High volume application, 100 ppm
Summary of the method: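 Acetone solutions diluted in nine volumes of water with 110 ppm Triton X-100 sprayed to run-off on first-leaf Yuma wheat seedlings (track spray: EC with 0.1% Trycol 5941). Puccinia triticina spores inoculated before or after treatment; overnight dark dew at 22° C., 100% RH, then greenhouse at 24° C. for disease development.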

[2] = system: Mycosphaerella graminicola; Anamorph: Septoria tritici; assay: Leaf blotch of wheat (SEPTTR) disease control on wheat seedlings; details: Zymoseptoria tritici, High volume application, 100 ppm
Summary of the method: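 Wheat seedlings (Yuma, first leaf emerged) sprayed to run-off with compound in acetone/water with 110 ppm Triton X-100, or track-sprayed as EC with 0.1% Trycol 5941. Septoria tritici spores inoculated before or after treatment. Dew chambers, then 20 °C greenhouse. Percent disease control derived from severity (0–100%) relative to untreated plants.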

Phakopsora pachyrhizi = assay: Asian soybean rust (PHAKPA) disease control; details: topical, high volume
Description: Technical grades of materials were dissolved in acetone, which were then mixed with nine volumes of water containing 0.011% Tween 20. The fungicide solutions were applied onto soybean seedlings using an automated booth sprayer to run-off. All sprayed plants were allowed to air dry prior to further handling.
Soybean plants (variety Williams 82) were grown in soil-less Metro mix, with one plant per pot. Two weeks old seedlings were used for testing. Plants were inoculated either 3 days prior to or 1 day after fungicide treatments. Plants were incubated for 24 h in a dark dew room at 22° C. and 100% RH then transferred to a growth room at 23° C. for disease to develop. Disease severity was assessed on the sprayed leaves.

[3] = system: Glomerella lagenarium; Anamorph: Colletotrichum lagenarium; assay: Cucumber anthracnose (COLLLA) disease control; details: Colletotrichum orbiculare, 24 h, 1 Day Protectant, high volume, read-out: Disease Control COLLLA 1 DP
Description: Technical grades of materials were dissolved in acetone, which were then mixed with nine volumes of water containing 110 ppm Triton X-100. The fungicide solutions were applied onto wheat seedlings using an automated booth sprayer to run-off. All sprayed plants were allowed to air dry prior to further handling. All fungicides were evaluated using the aforementioned method for their activity vs. all target diseases. Wheat leaf blotch and brown rust activity were also evaluated using track spray applications, in which case the fungicides were formulated as EC formulations, containing 0.1% Trycol 5941 in the spray solutions. Cucumber seedlings (variety Bush Pickle) were propagated in soil-less Metro mix, with each pot having one plant, and used in the test when 12 to 14 days old. Test plants were inoculated with an aqueous spore suspension of Colletotrichum lagenarium 24 hr after fungicide treatments. After inoculation the plants were kept in a dew room at 22° C. with 100% relative humidity for 48 hr to permit spores to germinate and infect the leaf. The plants were then transferred to a growth room set at 22° C. for disease to develop. Fungicide formulation, application and disease assessment on the sprayed leaves followed the procedures as described in the Example A.

[4] = 24 h, 1 Day Protectant, read-out: PUCCRT 1DP disease control
[5] = 72 h, 3 Day Curative, read-out: PUCCRT 3DC disease control
[6] = 24 h, 1 Day Protectant, read-out: SEPTTR 1DP disease control
[7] = 72 h, 3 Day Curative, read-out: SEPTTR 3DC disease control
[8] = 24 h, 1 Day Protectant, read-out: Disease Control PHAKPA 1DP
[9] = 72 h, 3 Day Curative, read-out: Disease Control PHAKPA 3DC

| Compound | pest or weed control at 100 ppm [1, 4] [%] | pest or weed control at 100 ppm [1, 5] [%] | pest or weed control at 100 ppm [2, 6] [%] | pest or weed control at 100 ppm [2, 7] [%] | pest or weed control at 25 ppm (Phakopsora pachyrhizi; [8]) [%] | pest or weed control at 25 ppm (Phakopsora pachyrhizi; [9]) [%] | pest or weed control at 100 ppm [3] [%] |
| --- | --- | --- | --- | --- | --- | --- | --- |
| COc1ccnc(C(=O)N[C@H]2CCC[C@H](OCC(C)C)[C@@H](OCCCC(F)(F)F)[C@H](C)OC2=O)c1OCOC(C)=O [F44] | 80 to 100 | 80 to 100 | 80 to 100 | 80 to 100 | 80 to 100 | – | – |
| CCCO[C@H]1[C@H](C)OC(=O)[C@@H](NC(=O)c2nccc(OC)c2OCOC(C)=O)CCC[C@@H]1OCC(C)C [F45] | 80 to 100 | 80 to 100 | 80 to 100 | 80 to 100 | 80 to 100 | 80 to 100 | – |
| COc1ccnc(C(=O)N[C@H]2CCC[C@H](OCC(C)C)[C@@H](OC(=O)C3CC3)[C@H](C)OC2=O)c1OCOC(C)=O [F46] | 80 to 100 | 80 to 100 | 80 to 100 | 80 to 100 | 80 to 100 | – | – |
| CCCO[C@H]1[C@H](C)OC(=O)[C@@H](NC(=O)c2nccc(OC)c2OC(C)=O)CCC[C@@H]1OCC(C)C [F47] | 80 to 100 | 80 to 100 | 80 to 100 | 80 to 100 | < 0 | – | – |
| COc1ccnc(C(=O)N[C@H]2CCC[C@H](OCC(C)C)[C@@H](OC/C=C/C(F)(F)F)[C@H](C)OC2=O)c1OCOC(C)=O [F59] | 80 to 100 | 80 to 100 | 80 to 100 | 80 to 100 | 80 to 100 | – | – |
| COc1ccnc(C(=O)N[C@H]2CCC[C@H](OC3CCCC3)[C@@H](OC3CCCC3)[C@H](C)OC2=O)c1OCOC(=O)C(C)C [F76] | 80 to 100 | 80 to 100 | 80 to 100 | 80 to 100 | 80 to 100 | – | – |
| COc1ccnc(C(=O)N[C@H]2CCC[C@H](OC3CCCC3)[C@@H](OC3CCCC3)[C@H](C)OC2=O)c1OC(C)=O [F77] | 80 to 100 | 80 to 100 | 80 to 100 | 80 to 100 | 80 to 100 | – | – |
| COc1ccnc(C(=O)N[C@H]2CCC[C@H](OC3CCCC3)[C@@H](Oc3ccccc3)[C@H](C)OC2=O)c1OCOC(C)=O [F78] | 80 to 100 | 80 to 100 | 80 to 100 | 80 to 100 | 80 to 100 | 80 to 100 | 80 to 100 |
| COc1ccnc(C(=O)N[C@H]2CCC[C@H](OC3CCCC3)[C@@H](Oc3ccccc3)[C@H](C)OC2=O)c1OCOC(=O)C(C)C [F79] | 80 to 100 | 80 to 100 | 80 to 100 | 80 to 100 | 80 to 100 | – | – |
| COc1ccnc(C(=O)N[C@H]2CCC[C@H](OC3CCCC3)[C@@H](Oc3ccccc3)[C@H](C)OC2=O)c1OC(C)=O [F81] | 80 to 100 | 80 to 100 | 80 to 100 | 80 to 100 | 80 to 100 | – | – |

From patent publication US9681664B2, “Macrocyclic picolinamides as fungicides” (Dow Agrosciences LLC, priority 2012, dated 2017)
